pIC50, pKi: −log10 of the molar value. Calls of active or inactive are those of the source. No cut-off for these calls is given here.

The test system of test [1] is MG-63. As to the kind of experiment: Cytotoxicity in human MG63 cells assessed as reduction in cell viability at 12.5 to 100 uM incubated for 72 hrs by acid phosphatase assay. Type of test: functional, cell-based.
The test system of test [2] is HOS. As to the kind of experiment: Cytotoxicity in human HOS cells assessed as reduction in cell viability at 12.5 to 100 uM incubated for 72 hrs by acid phosphatase assay. Type of test: functional, cell-based.
Another test has as its target Carbonic anhydrase 2 (Homo sapiens, UniProt P00918). The experiment in a line: Inhibition of human carbonic anhydrase 2 incubated for 15 mins by stopped flow CO2 hydrase assay.
A further test addresses Carbonic anhydrase 9 (Homo sapiens, UniProt Q16790). As to the kind of experiment: Inhibition of human carbonic anhydrase 9 incubated for 15 mins by stopped flow CO2 hydrase assay.
The next test concerns the target Carbonic anhydrase 1 (Homo sapiens, UniProt P00915). As to the kind of experiment: Inhibition of human carbonic anhydrase 1 incubated for 15 mins by stopped flow CO2 hydrase assay.
In test [3] the test system is MG-63. The experiment in a line: Cytotoxicity in human MG63 cells assessed as reduction in cell viability at 25 uM incubated for 72 hrs by acid phosphatase assay. Type of test: functional.
The subject of test [4] is HOS. As to the kind of experiment: Cytotoxicity in human HOS cells assessed as reduction in cell viability at 25 uM incubated for 72 hrs by acid phosphatase assay. Type of test: functional.
Test [5] has as its system HOS. As to the kind of experiment: Induction of apoptosis in human HOS cells assessed as increase in caspase-7 activation at 25 uM incubated for 72 hrs by Caspase-GloR 3/7 assay. The class given is functional, cell-based.
For test [6], the system named is MG-63. The experiment in a line: Induction of apoptosis in human MG63 cells assessed as increase in caspase-3 activation at 25 uM incubated for 72 hrs by Caspase-GloR 3/7 assay. Type of test: functional, cell-based.
The test system of test [7] is HOS. The experiment in a line: Induction of apoptosis in human HOS cells assessed as increase in caspase-3 activation at 25 uM incubated for 72 hrs by Caspase-GloR 3/7 assay. The class given is functional, cell-based.
Test [8] deals with HOS. The experiment in a line: Antiproliferative activity against human HOS cells assessed as reduction in cell viability incubated for 72 hrs by erythrosine B dye vital staining assay. The class given is functional, cell-based.
The subject of test [9] is MG-63. The experiment in a line: Antiproliferative activity against human MG63 cells assessed as reduction in cell viability incubated for 72 hrs by erythrosine B dye vital staining assay. The class given is functional, cell-based. The conditions noted are these: MG-63, 72 h.
The test system of test [10] is MG-63. The experiment in a line: Induction of apoptosis in human MG63 cells assessed as increase in caspase-7 activation at 25 uM incubated for 72 hrs by Caspase-GloR 3/7 assay. Type of test: functional, cell-based.
For test [11], the system named is HOS. As to the kind of experiment: Cytotoxicity in human HOS cells assessed as reduction in cell viability at 50 uM incubated for 72 hrs by acid phosphatase assay. Type of test: functional.
In test [12] the test system is MG-63. The experiment in a line: Cytotoxicity in human MG63 cells assessed as reduction in cell viability at 50 uM incubated for 72 hrs by acid phosphatase assay. Type of test: functional.
Test [13] deals with HOS. As to the kind of experiment: Induction of apoptosis in human HOS cells assessed as increase in caspase-7 activation at 50 uM incubated for 72 hrs by Caspase-GloR 3/7 assay. Type of test: functional, cell-based.
Test [14] concerns MG-63. The experiment in a line: Induction of apoptosis in human MG63 cells assessed as increase in caspase-3 activation at 50 uM incubated for 72 hrs by Caspase-GloR 3/7 assay. Type of test: functional, cell-based.
The test system of test [15] is MG-63. The experiment in a line: Induction of apoptosis in human MG63 cells assessed as increase in caspase-7 activation at 50 uM incubated for 72 hrs by Caspase-GloR 3/7 assay. Type of test: functional, cell-based.
The test system of test [16] is HOS. The experiment in a line: Induction of apoptosis in human HOS cells assessed as increase in caspase-3 activation at 50 uM incubated for 72 hrs by Caspase-GloR 3/7 assay. Type of test: functional, cell-based.

Chain of Carbonic anhydrase 1 (P00915 whole entry): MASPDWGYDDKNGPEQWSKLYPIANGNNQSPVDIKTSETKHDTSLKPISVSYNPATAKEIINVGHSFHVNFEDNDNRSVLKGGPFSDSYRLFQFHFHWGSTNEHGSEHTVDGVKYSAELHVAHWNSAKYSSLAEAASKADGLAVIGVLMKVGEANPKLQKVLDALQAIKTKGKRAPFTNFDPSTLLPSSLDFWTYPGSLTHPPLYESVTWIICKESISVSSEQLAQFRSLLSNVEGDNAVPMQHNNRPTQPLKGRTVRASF

In the case of `O=C(/C=C(\O)C(=O)O)/C=C/c1ccc(NC(=O)c2ccc3ccccc3c2)cc1`, the result with MG-63 [1] and with HOS [2] was inactive. The negative logarithm of the Ki (pKi) is 5.68 at Carbonic anhydrase 2, 7.95 on Carbonic anhydrase 9 and 5.05 at Carbonic anhydrase 1.
For the molecule `O=C(/C=C(\O)C(=O)O)/C=C/c1ccc(NC(=O)c2ccccc2)cc1`, the pKi is 5.30 at Carbonic anhydrase 2, 7.90 on Carbonic anhydrase 9 and less than 5.00 on Carbonic anhydrase 1.
Consider `CCOC(=O)/C(O)=C/C(=O)/C=C/c1ccc(NC(=O)c2cccc3ccccc23)cc1`, for which the Activity with MG-63 [3] was 16.4%; in the test on HOS [4], 19.7%; in the test with MG-63 [1] it was “Dose-dependent effect”; in the test with HOS [2], “Dose-dependent effect”. Besides, the results for the pKi at Carbonic anhydrase 2, at Carbonic anhydrase 9 and at Carbonic anhydrase 1 were 5.06, 7.42 and less than 5.00, respectively. For the same molecule, the result with HOS [5], in the test with MG-63 [6], in the test with HOS [7] and in the test with MG-63 [10] was inactive. The figures for the negative-log IC50 (pIC50) in the test with HOS [8] and in the test on MG-63 [9] were 4.81 and 4.83, respectively.
Take `CCOC(=O)/C(O)=C/C(=O)/C=C/c1ccc(NC(=O)c2ccc3ccccc3c2)cc1`: the Activity in the test on HOS [11] was 50%; in the test with MG-63 [12], 50%; in the test with MG-63 [1], “Dose-dependent effect”; in the test with HOS [2], “Dose-dependent effect”. Further, the result in the test on HOS [13], in the test on MG-63 [14], in the test with MG-63 [15] and in the test with HOS [16] was inactive. Besides, the results for the pKi at Carbonic anhydrase 2, on Carbonic anhydrase 9 and at Carbonic anhydrase 1 were 5.02, 7.90 and 5.21, respectively. The pIC50 in the test on HOS [8] was 4.72; in the test on MG-63 [9] it was 4.34.
`CCOC(=O)/C(O)=C/C(=O)/C=C/c1ccc(NC(=O)c2ccccc2)cc1`: the negative-log Ki (pKi) at Carbonic anhydrase 2 is less than 5.00; on Carbonic anhydrase 9, 7.04; at Carbonic anhydrase 1, 5.13.
As to `O=C(/C=C(\O)C(=O)O)/C=C/c1ccc(NC(=O)c2cccc3ccccc23)cc1`, the figures for the negative-log Ki (pKi) at Carbonic anhydrase 2, on Carbonic anhydrase 9 and at Carbonic anhydrase 1 were 5.59, 7.89 and less than 5.00, respectively.

Values taken from ChEMBL document CHEMBL4339231, “α,γ-Diketocarboxylic Acids and Their Esters Act as Carbonic Anhydrase IX and XII Selective Inhibitors” (ACS Med Chem Lett, 2019).
